Common to all, as to assay type: in vivo
Data set [1] has as its system Cyperus difformis. As to the kind of experiment: Test Example 3: herbicidal effect by foliage application, Wagner pot (symbol E). The following applies: application herbicide amount 320 g/ha. An outline of the steps: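 Herbicidal activity was rated three weeks after a foliar spray of diluted emulsion concentrate, applied at a predetermined dose to plants grown for 14 days from seed in waterlogged alluvial soil within a 25–30 °C greenhouse.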

Data set [2] concerns wheat. Nature of the data set: Test Example 5: effect on crop by foliage application, plastic box (symbol e). The following applies: 320 g/ha, 3 weeks after application. An outline of the steps:
(§1)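 Soil: sterilized diluvial. Container: plastic box, 21 × 13 cm, 7 cm deep. Sowing: spot-like, ~1.5 cm cover. Growth: greenhouse, 25° C. to 30° C.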

For data set [3], the system named is Galium spurium. As to the kind of experiment: Test Example 5: herbicidal effect by foliage application, plastic box (symbol Q). The following applies: 320 g/ha, 3 weeks after application. The method in brief: (§2)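 Leaf-applied emulsion, water-diluted to a preset herbicide dose, on two-week-old seedlings raised in a 25° C. to 30° C. greenhouse; injury rated at 3 weeks using earlier criteria.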

Data set [4] relates to rapeseed. As to the kind of experiment: Test Example 4: effect on crop by soil treatment (symbol g). The following applies: 320 g/ha. An outline of the steps:
(§3)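 Plants grew in a 25° C. to 30° C. greenhouse after spot-sowing of seeds, including beet, rapeseed, wheat and rice, into sterilized diluvial soil under roughly 1.5 cm of cover soil.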

For data set [5], the system named is corn. Nature of the data set: Test Example 4: effect on crop by soil treatment (symbol c). The following applies: 320 g/ha. An outline of the steps:
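Diluvial soil (sterilized) in boxes; seeds placed spot-wise alongside weed species; ~1.5 cm covering soil. Greenhouse, 25–30° C.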

Data set [6] deals with Monochoria vaginalis. As to the kind of experiment: Test Example 1: herbicidal activity, application before weed generation in submerged conditions (symbol C). The following applies: application herbicide amount 320 g/ha. An outline of the steps: (§4)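 Steps: alluvial soil flooded to 4 cm; weed seeds sown together; rice seedlings (2.5 leaf) transplanted; diluted emulsion applied to water surface the same day as sowing; plants grown at 25–30 °C in greenhouse; herbicidal effect rated on a 0–5 scale at 3 weeks.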

For data set [7], the system named is Amaranthus retroflexus. As to the kind of experiment: Test Example 4: herbicidal effect by soil treatment (symbol N). The following applies: 320 g/ha. The method in brief:
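Seeds were sown in sterilized diluvial soil, covered with about 1.5 cm of soil, and the soil surface was sprayed with a water-diluted emulsion of the compound at a predetermined rate. Plants grew in a greenhouse at 25° C. to 30° C.; effects were scored visually 3 weeks after application.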

For data set [8], the system named is Apera spica-venti. Nature of the data set: Test Example 5: herbicidal effect by foliage application, plastic box (symbol L). The following applies: 320 g/ha, 3 weeks after application. The method in brief:
as §2

The subject of data set [9] is Setaria viridis. As to the kind of experiment: Test Example 5: herbicidal effect by foliage application, plastic box (symbol G). The following applies: 320 g/ha, 3 weeks after application. An outline of the steps:
as §2

Data set [10] concerns Scirpus juncoides. Nature of the data set: Test Example 1: herbicidal activity, application before weed generation in submerged conditions (symbol B). The following applies: application herbicide amount 320 g/ha. The method in brief:
as §4

Data set [11] relates to rapeseed. Nature of the data set: Test Example 5: effect on crop by foliage application, plastic box (symbol g). The following applies: 320 g/ha, 3 weeks after application. The method in brief: as §1
Data set [12] concerns beet. As to the kind of experiment: Test Example 4: effect on crop by soil treatment (symbol f). The following applies: 320 g/ha. An outline of the steps:
as §3

For data set [13], the system named is Lolium multiflorum Lam. As to the kind of experiment: Test Example 5: herbicidal effect by foliage application, plastic box (symbol K). The following applies: 320 g/ha, 3 weeks after application. An outline of the steps:
as §2

In data set [14] the test system is beet. As to the kind of experiment: Test Example 5: effect on crop by foliage application, plastic box (symbol f). The following applies: 320 g/ha, 3 weeks after application. The method in brief:
as §1

SMILES strings stand for the structures.

With `COc1ccc(CON=C(C)CC2CC(O)=C(c3c(C)cc(C)cc3C)C2=O)cc1` (stereo not shown) [1-112], in [1], the “herbicidal effect on E, grade 0-5” value is 5 (Herbicidal ratio of 90% or more (almost completely withered)). Further, the “e: wheat, effect on crop (criteria 0-5)” value in [2] is recorded as 5 (Herbicidal ratio of 90% or more (almost completely withered)). For the same compound, in data set [3], the “Q: Galium spurium, herbicidal effect (criteria 0-5)” value (“Q: Galium spurium” below) is 3 (Herbicidal ratio of 40% or higher and lower than 70%). The “g: rapeseed, effect grade on crop” value in data set [4] is recorded as 0 (Herbicidal ratio of 5% or lower (almost no effect)). Moreover, in [5], the “c: corn, effect grade on crop” value is 1 (Herbicidal ratio of 5% or higher and lower than 20%). Besides, in data set [6], the “Herbicidal effect grade, C: Monochoria vaginalis” value (shortened to “Herbicidal effect grade, C”) is 5 (Herbicidal ratio of 90% or more (almost completely withered)). The “N: Amaranthus retroflexus, herbicidal effect grade” value (from here on “N: Amaranthus retroflexus”) in data set [7] is on record as 0 (Herbicidal ratio of 5% or lower (almost no effect)). Moreover, the “L: Apera spica-venti, herbicidal effect (criteria 0-5)” value (“L: Apera spica-venti” below) in data set [8] is recorded as 5 (Herbicidal ratio of 90% or more (almost completely withered)). Further, in data set [9], the “G: Setaria viridis, herbicidal effect (criteria 0-5)” value (from here on “G: Setaria viridis”) is 4 (Herbicidal ratio of 70% or higher and lower than 90%). Further, the “Herbicidal effect grade, B: Scirpus juncoides” value (“Herbicidal effect grade, B” for short) in [10] is 5 (Herbicidal ratio of 90% or more (almost completely withered)). In addition, the “g: rapeseed, effect on crop (criteria 0-5)” value (“g: rapeseed, effect on crop” for short) in data set [11] is 4 (Herbicidal ratio of 70% or higher and lower than 90%). The “f: beet, effect grade on crop” value in data set [12] is reported as 0 (Herbicidal ratio of 5% or lower (almost no effect)). Besides, the “K: Lolium multiflorum Lam., herbicidal effect (criteria 0-5)” value in data set [13] was 5 (Herbicidal ratio of 90% or more (almost completely withered)). Further, the “f: beet, effect on crop (criteria 0-5)” value in data set [14] is 0 (Herbicidal ratio of 5% or lower (almost no effect)).

With `CC(CC1CC(O)=C(c2c(C)cc(C)cc2C)C1=O)=NOCc1cccc(Cl)c1` (stereo not shown) [1-114], the “herbicidal effect on E, grade 0-5” value in data set [1] was 2 (Herbicidal ratio of 20% or higher and lower than 40%). Moreover, the “e: wheat, effect on crop (criteria 0-5)” value in [2] is 4 (Herbicidal ratio of 70% or higher and lower than 90%). Also, the “Q: Galium spurium” value in data set [3] is given as 0 (Herbicidal ratio of 5% or lower (almost no effect)). For the same compound, in [4], the “g: rapeseed, effect grade on crop” value was 1 (Herbicidal ratio of 5% or higher and lower than 20%). The “c: corn, effect grade on crop” value in data set [5] is 0 (Herbicidal ratio of 5% or lower (almost no effect)). Further, in data set [6], the “Herbicidal effect grade, C” value was 5 (Herbicidal ratio of 90% or more (almost completely withered)). In addition, the “N: Amaranthus retroflexus” value in data set [7] is on record as 0 (Herbicidal ratio of 5% or lower (almost no effect)). The “L: Apera spica-venti” value in data set [8] is listed as 5 (Herbicidal ratio of 90% or more (almost completely withered)). Further, the “G: Setaria viridis” value in [9] was 5 (Herbicidal ratio of 90% or more (almost completely withered)). Also, the “Herbicidal effect grade, B” value in [10] was 5 (Herbicidal ratio of 90% or more (almost completely withered)). Further, the “g: rapeseed, effect on crop” value in data set [11] was 4 (Herbicidal ratio of 70% or higher and lower than 90%). The “f: beet, effect grade on crop” value in data set [12] is 0 (Herbicidal ratio of 5% or lower (almost no effect)). For the same compound, in data set [13], the “K: Lolium multiflorum Lam., herbicidal effect (criteria 0-5)” value is listed as 5 (Herbicidal ratio of 90% or more (almost completely withered)). Also, in [14], the “f: beet, effect on crop (criteria 0-5)” value is listed as 0 (Herbicidal ratio of 5% or lower (almost no effect)).

Turning to `CC(CC1CC(O)=C(c2c(C)cc(C)cc2C)C1=O)=NOCc1ccccc1C(F)(F)F` (stereo not shown) [1-116], the “herbicidal effect on E, grade 0-5” value in data set [1] was 4 (Herbicidal ratio of 70% or higher and lower than 90%). The “e: wheat, effect on crop (criteria 0-5)” value in [2] is 3 (Herbicidal ratio of 40% or higher and lower than 70%). The “Q: Galium spurium” value in data set [3] was 1 (Herbicidal ratio of 5% or higher and lower than 20%). Also, in data set [4], the “g: rapeseed, effect grade on crop” value was 2 (Herbicidal ratio of 20% or higher and lower than 40%). The “c: corn, effect grade on crop” value in [5] is given as 0 (Herbicidal ratio of 5% or lower (almost no effect)). Moreover, the “Herbicidal effect grade, C” value in data set [6] is 5 (Herbicidal ratio of 90% or more (almost completely withered)). In addition, the “N: Amaranthus retroflexus” value in data set [7] was 5 (Herbicidal ratio of 90% or more (almost completely withered)). For the same compound, the “L: Apera spica-venti” value in data set [8] is reported as 5 (Herbicidal ratio of 90% or more (almost completely withered)). Moreover, the “G: Setaria viridis” value in data set [9] was 5 (Herbicidal ratio of 90% or more (almost completely withered)). Also, the “Herbicidal effect grade, B” value in data set [10] was 4 (Herbicidal ratio of 70% or higher and lower than 90%). Besides, in [11], the “g: rapeseed, effect on crop” value is 5 (Herbicidal ratio of 90% or more (almost completely withered)). Further, the “f: beet, effect grade on crop” value in data set [12] is given as 0 (Herbicidal ratio of 5% or lower (almost no effect)). In addition, the “K: Lolium multiflorum Lam., herbicidal effect (criteria 0-5)” value in data set [13] is 5 (Herbicidal ratio of 90% or more (almost completely withered)). Further, the “f: beet, effect on crop (criteria 0-5)” value in [14] is 0 (Herbicidal ratio of 5% or lower (almost no effect)).

Consider `CC(CC1CC(O)=C(c2c(C)cc(C)cc2C)C1=O)=NOCc1cccc(C(F)(F)F)c1` (stereo not shown) [1-117], for which, in data set [1], the “herbicidal effect on E, grade 0-5” value is 5 (Herbicidal ratio of 90% or more (almost completely withered)). In addition, in [2], the “e: wheat, effect on crop (criteria 0-5)” value is 5 (Herbicidal ratio of 90% or more (almost completely withered)). For the same compound, the “Q: Galium spurium” value in data set [3] is 0 (Herbicidal ratio of 5% or lower (almost no effect)). Also, the “g: rapeseed, effect grade on crop” value in [4] is 2 (Herbicidal ratio of 20% or higher and lower than 40%). The “c: corn, effect grade on crop” value in data set [5] is given as 0 (Herbicidal ratio of 5% or lower (almost no effect)). In data set [6], the “Herbicidal effect grade, C” value is on record as 5 (Herbicidal ratio of 90% or more (almost completely withered)). For the same compound, in [7], the “N: Amaranthus retroflexus” value is reported as 0 (Herbicidal ratio of 5% or lower (almost no effect)). The “L: Apera spica-venti” value in data set [8] is 5 (Herbicidal ratio of 90% or more (almost completely withered)). Also, the “G: Setaria viridis” value in [9] is 5 (Herbicidal ratio of 90% or more (almost completely withered)). Also, the “Herbicidal effect grade, B” value in data set [10] is 5 (Herbicidal ratio of 90% or more (almost completely withered)). Besides, in [11], the “g: rapeseed, effect on crop” value is 5 (Herbicidal ratio of 90% or more (almost completely withered)). Also, the “f: beet, effect grade on crop” value in [12] is reported as 0 (Herbicidal ratio of 5% or lower (almost no effect)). The “K: Lolium multiflorum Lam., herbicidal effect (criteria 0-5)” value in data set [13] is 5 (Herbicidal ratio of 90% or more (almost completely withered)). The “f: beet, effect on crop (criteria 0-5)” value in data set [14] was 0 (Herbicidal ratio of 5% or lower (almost no effect)).

With `COC(=O)c1ccc(CON=C(C)CC2CC(O)=C(c3c(C)cc(C)cc3C)C2=O)cc1` (stereo not shown) [1-118], in data set [1], the “herbicidal effect on E, grade 0-5” value was 0 (Herbicidal ratio of 5% or lower (almost no effect)). Further, the “e: wheat, effect on crop (criteria 0-5)” value in data set [2] is given as 0 (Herbicidal ratio of 5% or lower (almost no effect)). Moreover, in data set [3], the “Q: Galium spurium” value is 3 (Herbicidal ratio of 40% or higher and lower than 70%). In addition, in data set [4], the “g: rapeseed, effect grade on crop” value is 1 (Herbicidal ratio of 5% or higher and lower than 20%). For the same compound, in data set [5], the “c: corn, effect grade on crop” value is reported as 0 (Herbicidal ratio of 5% or lower (almost no effect)). Moreover, in data set [6], the “Herbicidal effect grade, C” value is 2 (Herbicidal ratio of 20% or higher and lower than 40%). The “N: Amaranthus retroflexus” value in data set [7] is recorded as 0 (Herbicidal ratio of 5% or lower (almost no effect)). The “L: Apera spica-venti” value in data set [8] was 3 (Herbicidal ratio of 40% or higher and lower than 70%). In data set [9], the “G: Setaria viridis” value is 0 (Herbicidal ratio of 5% or lower (almost no effect)). Besides, in data set [10], the “Herbicidal effect grade, B” value was 1 (Herbicidal ratio of 5% or higher and lower than 20%). Besides, the “g: rapeseed, effect on crop” value in [11] was 4 (Herbicidal ratio of 70% or higher and lower than 90%). Besides, the “f: beet, effect grade on crop” value in data set [12] is 0 (Herbicidal ratio of 5% or lower (almost no effect)). In addition, the “K: Lolium multiflorum Lam., herbicidal effect (criteria 0-5)” value in data set [13] is given as 5 (Herbicidal ratio of 90% or more (almost completely withered)). Moreover, the “f: beet, effect on crop (criteria 0-5)” value in data set [14] is given as 0 (Herbicidal ratio of 5% or lower (almost no effect)).

The values are drawn from patent publication US11000033B2, “Ketone or oxime compound, and herbicide” (NISSAN CHEMICAL CORPORATION, priority 2014, dated 2021).
